In patent publication US10000516B2 (priority 2015, dated 2018) one finds IC50 data, which are given here for 19 compounds.

A value given as a limit tells only on which side of the number the result lay.

T1 sequence (P00746 26-253): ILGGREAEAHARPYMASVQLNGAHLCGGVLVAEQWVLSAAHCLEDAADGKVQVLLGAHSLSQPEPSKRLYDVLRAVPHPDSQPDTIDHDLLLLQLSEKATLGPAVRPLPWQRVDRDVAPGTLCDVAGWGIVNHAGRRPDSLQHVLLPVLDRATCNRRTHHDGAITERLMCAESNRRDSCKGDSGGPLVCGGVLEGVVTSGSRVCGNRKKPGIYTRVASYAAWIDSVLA

The first assay has as its target T1, Human Factor D (Homo sapiens, UniProt P00746).
T1 construct: purified from human serum; purchased Complement Technology, Inc; host or cells: human serum (natural protein, not recombinant)
The experiment in a line: Human Factor D assay (Z-L-Lys-SBzl/DTNB, absorbance at 405 nm). The format is biochemical.
Conditions: not given
How it is done: Example 44. Human Factor D Assay
Human Factor D (purified from human serum, Complement Technology, Inc.) at 80 nM final concentration was incubated with test compound at various concentrations for 5 minutes at room temperature in 50 mM Tris, 1M NaCl, pH 7.5. A synthetic substrate Z-L-Lys-SBzl and DTNB (Ellman's reagent) are added to final concentrations of 100 µM each. Absorbance at 405 nm (A405) was recorded at 30 second intervals for 30 minutes using a microplate spectrophotometer. IC50 values are calculated by nonlinear regression of complement Factor D reaction rates as a function of test compound concentration.
In the case of `O=C(NCc1cccc(Cl)c1F)[C@@H]1C[C@@H](F)CN1C(=O)Cn1cc(C(=O)C(F)(F)F)c2ccc(P(=O)(O)O)cc21` [Compound 32, 1-(2-((2S,4R)-2-(3-chloro-2-fluorobenzylcarbamoyl)-4-fluoropyrrolidin-1-yl)-2-oxoethyl)-3-(2,2,2-trifluoroacetyl)-1H-indol-6-ylphosphonic acid], the IC50 – broadly, the concentration needed to halve the response being measured – is below 1 µM.

Staying with this assay, now noted: Table 1; Human Factor D 80 nM, purified from human serum; substrate Z-L-Lys-SBzl; read-out: IC50.
As for `CC(=O)c1cn(CC(=O)N2C[C@H](F)C[C@H]2C(=O)NCc2cccc(Cl)c2F)c2cc(P(=O)(OCOC(=O)C(C)(C)C)OCOC(=O)C(C)(C)C)ccc12` [Compound 26, ((3-acetyl-1-(2-((2S,4R)-2-(3-chloro-2-fluorobenzylcarbamoyl)-4-fluoropyrrolidin-1-yl)-2-oxoethyl)-1H-indol-6-yl)phosphoryl)bis(oxy)bis (methylene) bis(2,2-dimethylpropanoate)], the IC50 was below 1 µM.

Regarding `CCP(=O)(O)c1ccc2c(C(C)=O)cn(CC(=O)N3C[C@H](F)C[C@H]3C(=O)NCc3cccc(Cl)c3F)c2c1` [Compound 27, 3-acetyl-1-(2-((2S,4R)-2-(3-chloro-2-fluorobenzylcarbamoyl)-4-fluoropyrrolidin-1-yl)-2-oxoethyl)-1H-indol-6-yl(ethyl)phosphinic acid], the IC50 is below 1 µM. On the same count and under the same terms, the result for `CC(=O)c1cn(CC(=O)N2C[C@H](F)C[C@H]2C(=O)NCc2cccc(Cl)c2F)c2cc(P(=O)(O)OCOC(=O)C(C)(C)C)ccc12` [Compound 28, ((3-acetyl-1-(2-((2S,4R)-2-(3-chloro-2-fluorobenzylcarbamoyl)-4-fluoropyrrolidin-1-yl)-2-oxoethyl)-1H-indol-6-yl)(hydroxy)phosphoryloxy) methyl pivalate] reads below 1 µM; that for `CC(=O)c1cn(CC(=O)N2C[C@H](F)C[C@H]2C(=O)NCc2cccc(Cl)c2F)c2cc(P(=O)(O)OCC(F)(F)F)ccc12` [Compound 29, 2,2,2-trifluoroethyl hydrogen 3-acetyl-1-(2-((2S,4R)-2-(3-chloro-2-fluorobenzylcarbamoyl)-4-fluoropyrrolidin-1-yl)-2-oxoethyl)-1H-indol-6-ylphosphonate], below 1 µM; that for `CCOP(=O)(OCC)c1cc2c(cc1F)c(C(C)=O)cn2CC(=O)N1C[C@H](F)C[C@H]1C(=O)NCc1cccc(Cl)c1F` [Compound 30, diethyl 3-acetyl-1-(2-((2S,4R)-2-(3-chloro-2-fluorobenzylcarbamoyl)-4-fluoropyrrolidin-1-yl)-2-oxoethyl)-5-fluoro-1H-indol-6-ylphosphonate], below 1 µM. Still for that read-out and setting: the result for `CC(=O)c1cn(CC(=O)N2C[C@H](F)C[C@H]2C(=O)NCc2cccc(Cl)c2F)c2cc(P(=O)(O)O)c(F)cc12` [Compound 31, 3-acetyl-1-(2-((2S,4R)-2-(3-chloro-2-fluorobenzylcarbamoyl)-4-fluoropyrrolidin-1-yl)-2-oxoethyl)-5-fluoro-1H-indol-6-ylphosphonic acid] reads below 1 µM.

The same assay, now with this note: Table 3; Human Factor D 80 nM, purified from human serum; substrate Z-L-Lys-SBzl; read-out: IC50 (Stars).
Consider `CCOP(=O)(OCC)c1ccc2c(c1)c(C(C)=O)cn2CC(=O)N1C[C@H](F)C[C@H]1C(=O)NCCc1ccccc1` [Compound 78, diethyl (3-acetyl-1-(2-((2S,4R)-4-fluoro-2-(phenethylcarbamoyl)pyrrolidin-1-yl)-2-oxoethyl)-1H-indol-5-yl)phosphonate], for which the IC50 was above 10 µM. Same read-out and setting: the same measure for `CC(=O)c1cn(CC(=O)N2C[C@H](F)C[C@H]2C(=O)NCCc2ccccc2)c2ccc(P(=O)(O)O)cc12` [Compound 79, (3-acetyl-1-(2-((2S,4R)-4-fluoro-2-(phenethylcarbamoyl)pyrrolidin-1-yl)-2-oxoethyl)-1H-indol-5-yl)phosphonic acid]: above 10 µM. With `CCOP(=O)(OCC)c1ccc2c(c1)c(C(C)=O)cn2CC(=O)N1C[C@H](F)C[C@H]1C(=O)NCCCc1ccccc1` [Compound 82, diethyl (3-acetyl-1-(2-((2S,4R)-4-fluoro-2-((3-phenylpropyl)carbamoyl)pyrrolidin-1-yl)-2-oxoethyl)-1H-indol-5-yl)phosphonate], the IC50 is above 10 µM. Still for that read-out and setting: the result for `CC(=O)c1cn(CC(=O)N2C[C@H](F)C[C@H]2C(=O)NCCCc2ccccc2)c2ccc(P(=O)(O)O)cc12` [Compound 83, (3-acetyl-1-(2-((2S,4R)-4-fluoro-2-((3-phenylpropyl)carbamoyl)pyrrolidin-1-yl)-2-oxoethyl)-1H-indol-5-yl)phosphonic acid] reads above 10 µM; that for `CCOP(=O)(OCC)c1ccc2c(c1)c(C(C)=O)cn2CC(=O)N1C[C@H](F)C[C@H]1C(=O)NCCCCc1ccccc1` [Compound 86, diethyl (3-acetyl-1-(2-((2S,4R)-4-fluoro-2-((4-phenylbutyl)carbamoyl)pyrrolidin-1-yl)-2-oxoethyl)-1H-indol-5-yl)phosphonate], above 10 µM. For the compound `CC(=O)c1cn(CC(=O)N2C[C@H](F)C[C@H]2C(=O)NCCCCc2ccccc2)c2ccc(P(=O)(O)O)cc12` [Compound 87, (3-acetyl-1-(2-((2S,4R)-4-fluoro-2-((4-phenylbutyl)carbamoyl)pyrrolidin-1-yl)-2-oxoethyl)-1H-indol-5-yl)phosphonic acid], the IC50 was above 10 µM. As to `CCOP(=O)(OCC)c1ccc2c(c1)c(C(C)=O)cn2CC(=O)N1C[C@H](F)C[C@H]1CCNS(=O)(=O)c1ccccc1` [Compound 95, diethyl (3-acetyl-1-(2-((2R,4R)-4-fluoro-2-(2-(phenylsulfonamido)ethyl)pyrrolidin-1-yl)-2-oxoethyl)-1H-indol-5-yl)phosphonate], the IC50 is above 10 µM.

On to `CC(=O)c1cn(CC(=O)N2C[C@H](F)C[C@H]2CCNS(=O)(=O)c2ccccc2)c2ccc(P(=O)(O)O)cc12` [Compound 96, (3-acetyl-1-(2-((2R,4R)-4-fIuoro-2-(2-(phenylsulfonamido)ethyl)pyrrolidin-1-yl)-2-oxoethyl)-1H-indol-5-yl)phosphonic acid], for which the IC50 was above 10 µM. Still for that read-out and setting: the same measure for `CCOP(=O)(OCC)c1ccc2c(c1)c(C(C)=O)cn2CC(=O)N1CC[C@H]1C(=O)Nc1cccc(C)n1` [Compound 100, (S)-diethyl (3-acetyl-1-(2-(2-((6-methylpyridin-2-yl)carbamoyl)azetidin-1-yl)-2-oxoethyl)-1H-indol-5-yl)phosphonate]: above 10 µM.

Turning to `CC(=O)c1cn(CC(=O)N2CC[C@H]2C(=O)Nc2cccc(C)n2)c2ccc(P(=O)(O)O)cc12` [Compound 101, (S)-(3-acetyl-1-(2-(2-((6-methylpyridin-2-yl)carbamoyl)azetidin-1-yl)-2-oxoethyl)-1H-indol-5-yl)phosphonic acid], the IC50 is above 10 µM. The same measure, in the same setting: the same measure for `CCOP(=O)(OCC)c1ccc2c(c1)c(C(N)=O)cn2CC(=O)N1[C@@H]2CC[C@@H](C2)[C@H]1C(=O)Nc1cccc(C)n1` [Compound 102, diethyl (3-carbamoyl-1-(2-((1R,3S,4S)-3-((6-methylpyridin-2-yl)carbamoyl)-2-azabicyclo[2.2.1]heptan-2-yl)-2-oxoethyl)-1H-indol-5-yl)phosphonate]: above 10 µM.

As to `Cc1cccc(NC(=O)[C@@H]2[C@H]3CC[C@H](C3)N2C(=O)Cn2cc(C(N)=O)c3cc(P(=O)(O)O)ccc32)n1` [Compound 103, (3-carbamoyl-1-(2-((1R,3S,4S)-3-((6-methylpyridin-2-yl)carbamoyl)-2-azabicyclo[2.2.1]heptan-2-yl)-2-oxoethyl)-1H-indol-5-yl)phosphonic acid], the IC50 is above 10 µM.
